System: Corn wild type (RNA 1) (RNA, aptamer) GGCGCGAGGAAGGAGGUCUGAGGAGGUCACUGCGCC
Test: fluorescence titration, RNA varied
Settings: 100 mM KCl, 10 mM MgCl2; pH 7.5, 20 °C; 2.5 μM TO

- apparent Kd: 1400 nM
Compound: CN1C(=Cc2cc[n+](C)c3ccccc23)Sc2ccccc21

From publication PMC6697623 (2019)
